Reference: ChEMBL document CHEMBL3351551, “Neuraminidase inhibitory activities of quaternary isoquinoline alkaloids from Corydalis turtschaninovii rhizome” (Bioorg Med Chem, 2014)
Converted amounts (≈) assume the structure as drawn.

Experiments:
[1] = system: Clostridium perfringens; assay: Antibacterial activity against Clostridium perfringens in tryptic soy broth after 24 hrs; assay type: functional
[2] = target: Neuraminidase (Influenza A virus (strain A/USSR/90/1977 H1N1), UniProt P03469); assay: Inhibition of recombinant Influenza A virus H1N1 neuraminidase using 4-methylumbelliferyl-alpha-D-Nacetylneuraminic acid sodium salt hydrate as substrate by fluorometry
[3] = Inhibition of Clostridium perfringens neuraminidase 4-methylumbelliferyl-alpha-D-Nacetylneuraminic acid sodium salt hydrate as substrate by fluorometry
[4] = Inhibition of Clostridium perfringens neuraminidase by Dixon plot
[5] = system: Clostridium perfringens; assay: Inhibition of Clostridium perfringens neuraminidase 4-methylumbelliferyl-alpha-D-Nacetylneuraminic acid sodium salt hydrate as substrate at 100 uM by fluorometry

Sequence of Neuraminidase (P03469 whole entry): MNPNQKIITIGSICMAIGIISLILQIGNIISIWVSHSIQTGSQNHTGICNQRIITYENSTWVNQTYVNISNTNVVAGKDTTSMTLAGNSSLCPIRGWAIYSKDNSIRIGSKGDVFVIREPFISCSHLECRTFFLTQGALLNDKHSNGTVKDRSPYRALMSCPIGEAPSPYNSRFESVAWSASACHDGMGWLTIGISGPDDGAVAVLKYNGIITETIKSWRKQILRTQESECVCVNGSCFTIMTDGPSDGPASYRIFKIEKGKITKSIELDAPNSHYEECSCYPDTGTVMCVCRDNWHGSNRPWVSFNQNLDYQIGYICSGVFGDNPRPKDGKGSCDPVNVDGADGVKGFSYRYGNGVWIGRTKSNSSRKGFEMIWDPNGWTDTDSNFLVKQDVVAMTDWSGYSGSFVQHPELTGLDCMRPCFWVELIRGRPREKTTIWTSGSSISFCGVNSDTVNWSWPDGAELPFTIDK

COc1cc2c(cc1OC)-c1cc3ccc(OC)c(OC)c3c[n+]1CC2 [PALMITINE]
MIC [1]: 44.7 µM | IC50 [2]: 33.1 µM | IC50 [3]: 12.8 µM | Ki [4]: 16.9 µM

COc1cc(/C=C/C(=O)CC(=O)/C=C/c2ccc(O)c(OC)c2)ccc1O [CURCUMIN]
IC50 [3]: 6 µM

COc1cc2c(cc1O)CC[n+]1cc3c(OC)c(OC)ccc3cc1-2 [JATRORRHIZINE]
IC50 [2]: 66.2 µM | IC50 [3]: 37 µM

COc1cc2c(cc1OC)-c1c(OC)c(OC)cc3c1[C@H](C2)N(C)CC3 [GLAUCINE]
IC50 [3]: 96.9 µM

c1c2c(cc3c1OCO3)-c1cc3cc4c(cc3c[n+]1CC2)OCO4
IC50 [2]: 126 µM | IC50 [3]: 65.2 µM

COc1cc2c(cc1OC)[C@H]1[C@@H](C)c3ccc(OC)c(OC)c3CN1CC2
inhibition [5]: 12.7%

c1c2c(cc3c1OCO3)-c1cc3ccc4c(c3c[n+]1CC2)OCO4 [COPTISINE]
IC50 [2]: 25.3 µM | IC50 [3]: 25.1 µM

c1cc2c(c3c1CC1c4cc5c(cc4CCN1C3)OCO5)OCO2 (configuration not stated)
inhibition [5]: 4.7%

COc1cc2c(cc1O)CC[n+]1cc3c(OC)c(OC)ccc3c(C)c1-2
IC50 [2]: 80.5 µM | IC50 [3]: 41.3 µM

COc1ccc2cc3[n+](cc2c1OC)CCc1cc2c(cc1-3)OCO2 [BERBERINE]
MIC [1]: 52.2 µM | IC50 [2]: 38.5 µM | IC50 [3]: 13.5 µM | Ki [4]: 11.9 µM

CC1(C)S[C@@H]2[C@H](NC(=O)[C@H](N)c3ccccc3)C(=O)N2[C@H]1C(=O)O [AMPICILLIN]
MIC [1]: 0.3 µM (≈ 0.105 µg/mL)

COc1cc2c(cc1OC)-c1c(C)c3cc(OC)c(OC)cc3c[n+]1CC2
IC50 [3]: 32.6 µM
